Positions of bridges follow the written chain, without caps; N, C: chain ends. Non-standard residues stand in square brackets, D forms with d. Residues, ends and D or L forms follow the SMILES beside them. βAla = NCCC(=O)O
Legend:
[1] = test system: NCI-H460 cells; test: Annexin V-FITC/PI staining, apoptosis by flow cytometry; assay type: cell-based, human
Description: Apoptosis of NCI-H460 cells was measured using FITC Annexin V Apoptosis Detection Kit (BD Biosciences, San Jose, CA, USA). […] NCI-H460 cells were incubated also with 5 µM CX-4945 for 6 h, 24 h and 48 h. Subsequently, cells were washed twice with cold PBS and resuspended in binding buffer (1X) at a final concentration of 1 × 10^6 cells/mL. Finally, 5 µL of FITC Annexin V and PI were added, and cell suspensions were incubated for 15 min at room temperature in the dark. Flow cytometric analysis of stained cells was performed as previously described. All experiments were performed at least two times.

[2] = test system: NCI-H460 cells; test: Cell cycle analysis, PI staining, flow cytometry; assay type: cell-based, human
Description: For cell cycle analysis, NCI-H460 cells were incubated with 30 µM CIGB-300 or with 5 µM CX-4945, respectively, during 6 h, 24 h and 48 h. Following treatment with the peptide, cells were collected by centrifugation, washed with PBS, and fixed at 4 °C for 2 h with ice-cold 70% ethanol. After fixation, cells were treated with DNase-free RNase A (Sigma, St. Louis, MO, USA) and subsequently stained at 37 °C for 20 min with […] PI solution (Sigma, St. Louis, MO, USA). Stained cells were analyzed in the above-mentioned Partec CyFlow Space flow cytometry, and FlowJo Software (v7.6.1) was used for data processing and visualization. All experiments were performed at least four times.

[3] = test system: mRNA levels of CK2 subunits; test: Quantitative real-time PCR of CK2 subunit transcripts; assay type: cell-based, human; settings: normalised to GAPDH and HMBS
Description: Three replicates per condition were used. […] Louis, MO, USA) for RNA isolation (AllPrep DNA/RNA/miRNA Universal Kit, Qiagen, Valencia, CA, USA), according to the manufacturer protocol. All RNA samples were checked by Nanodrop spectrophotometer to measure concentration (ng/μL) and OD relation (260/280 nm). […] Complementary (c)DNAs were obtained from 500 ng of total RNAs, using the Transcriptor First Strand cDNA Synthesis Kit package (Roche, Mannheim, Germany), following manufacturer instructions. […] We amplified two genes for normalization of GAPDH (glyceraldehyde-3-phosphate dehydrogenase) and HMBS (hydroxymethyl-bilane synthase), and the transcripts encoding for CK2 subunits. All the oligonucleotides were synthetized in the Synthesis Department at CIGB (Table S1). Runs were carried out in the LightCycler® 480II equipment (Roche, Mannheim, Germany) in a 96-well format and SYBR Green Probe II mode with a standard program with 45 cycles. Fold changes for transcripts in each treatment were calculated with respect to time-matched control groups after normalization with GAPDH and HMBS genes (v2.0.13, Qiagen GbmH, Munich, Germany), using Ct values and reaction efficiencies per amplicon calculated in […]11.3). Statistical differences are reported in this program, with a p-value-associated with a significance for p < 0.05.

[4] = biological target: T1, CK2α (Homo sapiens, UniProt P68400); test: In vivo pull-down plus Western blot; assay type: binding; settings: biotin-tagged peptide 30 µM, 0.5 h, NCI-H460 cells
T1 construct: endogenous in cells; host or cells: NCI-H460
Description: (§1) For in vivo pull-down assays, N-terminal biotin tagged CIGB-300 (CIGB-300-B) was added to NCI-H460 cells at a final concentration of 30 µM and incubated for 30 min at 37 °C and 5% CO2. Subsequently, cells were collected, washed, and lysed in PBS solution (Sigma, St. Louis, MO, USA) containing 1 mM DTT (Sigma, St. Louis, MO, USA), Triton X-100 (1%), and complete protease inhibitor (Roche, Basel, Switzerland). Cellular lysates were cleared by centrifugation and added to 30 μL of pre-equilibrated streptavidin–sepharose matrix (GE Healthcare, Chicago, IL, USA). In the case of RNA pre-treatment, another cell extract was incubated with RNAase A (10 mg/mL) (Promega, Madison, WI, USA) for 20 min at 37 °C. Following 1 h at 4 °C, the matrix was collected by centrifugation and extensively washed with cold PBS 1 mM and DTT. Proteins bound to streptavidin–sepharose matrix were digested with trypsin (Promega, Madison, WI, USA) during 16 h or eluted for Western blot analysis. In parallel, untreated cells were subjected to the same experimental procedure to identify those proteins non-specifically bound to streptavidin–sepharose matrix. Proteins were resolved in 12% SDS-PAGE and then transferred to a nitrocellulose membrane. For Western blot analysis, a mouse monoclonal antibody against CK2α (Abcam, Cambridge, UK), a rabbit polyclonal antibody against CK2α′ (Abcam, Cambridge, UK), a mouse monoclonal antibody against CK2β (Sigma, St. Louis, MO, USA), and monoclonal rabbit antibodies against PTEN and RPS6 (Cell Signaling, Danvers, MA, USA), respectively, were used as primary antibodies. Detection was performed with peroxidase-conjugated anti-mouse IgG 1:5000 (Sigma, St. Louis, MO, USA) and anti-rabbit IgG 1:5000 (Sigma, St. Louis, MO, USA). In parallel, untreated cells were subjected to the same experimental procedure to identify those proteins non-specifically bound to streptavidin–sepharose matrix. […]

[5] = biological target: T2, CK2α′ (Homo sapiens, UniProt P19784); test: In vivo pull-down plus Western blot; assay type: binding; settings: biotin-tagged peptide 30 µM, 0.5 h, NCI-H460 cells
T2 construct: endogenous in cells; host or cells: NCI-H460
Description: as §1

[6] = biological target: T3, PTEN (Homo sapiens, UniProt P60484); test: In vivo pull-down plus Western blot; assay type: binding; settings: biotin-tagged peptide 30 µM, 0.5 h, NCI-H460 cells
T3 construct: endogenous in cells; host or cells: NCI-H460
Description: as §1

[7] = test system: CK2β; test: In vivo pull-down plus Western blot; assay type: binding, human; settings: biotin-tagged peptide 30 µM, 0.5 h, NCI-H460 cells
Description: as §1, with “membrane.” for “membrane. For Western blot analysis, a mouse monoclonal antibody against CK2α (Abcam, Cambridge, UK), a rabbit polyclonal antibody against CK2α′ (Abcam, Cambridge, UK), a mouse monoclonal antibody against CK2β (Sigma, St. Louis, MO, USA), and monoclonal rabbit antibodies against PTEN and RPS6 (Cell Signaling, Danvers, MA, USA), respectively, were used as primary antibodies. Detection was performed with peroxidase-conjugated anti-mouse IgG 1:5000 (Sigma, St. Louis, MO, USA) and anti-rabbit IgG 1:5000 (Sigma, St. Louis, MO, USA). In parallel, untreated cells were subjected to the same experimental procedure to identify those proteins non-specifically bound to streptavidin–sepharose matrix.”

[8] = test system: RPS6; test: In vivo pull-down plus Western blot; assay type: binding, human; settings: biotin-tagged peptide 30 µM, 0.5 h, NCI-H460 cells; RNAase free assay
Description: as §1, with “membrane.” for “membrane. For Western blot analysis, a mouse monoclonal antibody against CK2α (Abcam, Cambridge, UK), a rabbit polyclonal antibody against CK2α′ (Abcam, Cambridge, UK), a mouse monoclonal antibody against CK2β (Sigma, St. Louis, MO, USA), and monoclonal rabbit antibodies against PTEN and RPS6 (Cell Signaling, Danvers, MA, USA), respectively, were used as primary antibodies. Detection was performed with peroxidase-conjugated anti-mouse IgG 1:5000 (Sigma, St. Louis, MO, USA) and anti-rabbit IgG 1:5000 (Sigma, St. Louis, MO, USA). In parallel, untreated cells were subjected to the same experimental procedure to identify those proteins non-specifically bound to streptavidin–sepharose matrix.”

[9] = test system: p-RPS6 (S235/236); test: Western blot, CK2 downstream signaling; assay type: cell-based, human; settings: NCI-H460, 30 µM, 48 h
Description: (§2) NCI-H460 cells were plated on six-well cell culture plates at 1 × 10^6 cells per well and incubated overnight at 37 °C and 5% CO2. […] After incubation, the culture medium was withdrawn, and cells were washed with PBS and lysed in RIPA buffer containing protease/phosphatase inhibitor (Thermo Fisher Scientific, Waltham, MA, USA). Western blot detection was carried out as described (4.6). Primary antibodies against phospho-PTEN (S380) and total PTEN (Cell Signaling Technology, Danvers, MA, USA), phospho-RPS6 (S235/236) and total RPS6 (Cell Signaling Technology, Danvers, MA, USA), Ezrin (Abcam, Cambridge, UK), c-Myc (CIGB, SP, Cuba), and Fibrillarin (Abcam, Cambridge, UK) were used. Primary antibodies against CK2 subunits were used as previously described. All experiments were performed at least two times.

[10] = test system: c-Myc; test: Western blot, cancer molecular markers; assay type: cell-based, human
Description: as §2

[11] = test system: other solid tumor cells; design: method as in PMID 35155265; settings: read-out: IC50 mean value, antiproliferative effect; cited from earlier work
[12] = test system: NCI-H125; settings: NCI-H125 NSCLC cell line; cited from earlier work
[13] = test system: A549; settings: A549 NSCLC cell line; cited from earlier work
Description: In this work, we evaluated for the first time the molecular events supporting CK2 inhibition by CIGB-300 in an LCLC in vitro model such as NCI-H460 cells.

[14] = test system: NCI-H460 cells; test: Antiproliferative assay, crystal violet staining; assay type: cell-based; settings: Homo sapiens, 48 h incubation, CalcuSyn, mean, n = 4, read-out: IC50, antiproliferative effect
Description: NCI-H460 was originally obtained from the American Type Culture Collection (ATCC, Manassas, VA, USA). The cell line was cultured in Dulbecco’s modified Eagle’s medium (DMEM) (Gibco, Waltham, MA, USA) supplemented with 10% (v/v) fetal bovine serum (FBS, Invitrogen, Carlsbad, CA, USA) and 50 µg/mL gentamicin (Sigma, St. Louis, MO, USA). Cells were maintained at 37 °C and 5% CO2.
Antiproliferative effect was determined using crystal violet staining. Cells were seeded in flat-bottom 96-well plates (6000 cells/mL), and 24 h later, serial dilutions 1:2 ranging from 200 to 12.5 µM of CIGB-300 and serial dilutions 1:2 ranging from 50 to 3.12 µM of CX-4945 were added, respectively. After 48 h of incubation, the medium was removed from each well and crystal violet (1%) (Sigma, St. Louis, MO, USA) was added and incubated for 5 min at room temperature. After dye removal, wells were washed with water. Absorbance was measured in a CLARIOstar microplate reader (BMG LABTECH, Ortenberg, Germany), and half-inhibitory concentration (IC50) values were estimated using CalcuSyn software (v2.1) (Biosoft, Cambridge, UK).

[15] = NCI-H460, 5 µM, 6 h, 24 h and 48 h

T3 sequence (P60484 whole entry): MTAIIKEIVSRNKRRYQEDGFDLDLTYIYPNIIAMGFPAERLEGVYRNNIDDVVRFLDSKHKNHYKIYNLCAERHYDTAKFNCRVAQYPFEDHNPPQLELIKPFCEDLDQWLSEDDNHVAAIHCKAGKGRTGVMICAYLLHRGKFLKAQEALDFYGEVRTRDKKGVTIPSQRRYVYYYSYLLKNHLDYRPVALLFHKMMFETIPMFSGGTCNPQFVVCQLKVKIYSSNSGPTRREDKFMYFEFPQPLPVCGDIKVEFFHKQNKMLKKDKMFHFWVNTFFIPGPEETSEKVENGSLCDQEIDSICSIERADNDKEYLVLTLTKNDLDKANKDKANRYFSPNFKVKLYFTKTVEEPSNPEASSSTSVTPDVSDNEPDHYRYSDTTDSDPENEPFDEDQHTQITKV
T1 sequence (P68400 whole entry): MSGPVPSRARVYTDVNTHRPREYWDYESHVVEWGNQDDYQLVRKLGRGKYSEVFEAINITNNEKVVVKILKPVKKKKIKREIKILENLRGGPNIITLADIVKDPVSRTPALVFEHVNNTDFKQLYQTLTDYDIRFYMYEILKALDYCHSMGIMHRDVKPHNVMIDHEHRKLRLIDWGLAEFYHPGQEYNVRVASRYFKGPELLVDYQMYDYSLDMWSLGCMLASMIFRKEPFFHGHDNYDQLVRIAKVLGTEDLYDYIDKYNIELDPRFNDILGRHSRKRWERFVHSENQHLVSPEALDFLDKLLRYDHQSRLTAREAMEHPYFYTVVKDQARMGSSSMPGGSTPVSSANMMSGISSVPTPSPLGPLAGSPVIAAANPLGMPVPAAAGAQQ
T2 sequence (P19784 whole entry): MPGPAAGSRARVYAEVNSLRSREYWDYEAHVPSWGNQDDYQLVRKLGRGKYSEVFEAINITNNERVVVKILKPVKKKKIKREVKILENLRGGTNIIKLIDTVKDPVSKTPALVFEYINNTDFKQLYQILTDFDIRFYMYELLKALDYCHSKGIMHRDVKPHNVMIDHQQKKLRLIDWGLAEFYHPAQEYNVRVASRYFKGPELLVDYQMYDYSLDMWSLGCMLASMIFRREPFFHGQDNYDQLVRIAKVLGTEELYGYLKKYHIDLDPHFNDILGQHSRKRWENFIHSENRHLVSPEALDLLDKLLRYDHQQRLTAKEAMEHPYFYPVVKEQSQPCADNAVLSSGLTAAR

IC50 [14] [µM]	SMILES	apoptotic peak ([1]; NCI-H460, 30 µM, at 6 h) [%]	perturbation of cells accumulated in the G0/G1 and S phases of the cell cycle ([2]; NCI-H460, 30 µM, S phase at 6 h, G0/G1 at 24 h and 48 h)	up-regulation of mRNA levels of CK2 subunits ([3]; NCI-H460, 30 µM, earlier times (0.5 h, 3 h, 6 h))	interaction with CK2α in pull-down fraction [4]	interaction with CK2α′ in pull-down fraction [5]	interaction with PTEN in pull-down fraction [6]	regulatory subunit (β) of CK2 in pull-down fraction [7]	interaction with RPS6 in pull-down fraction [8]	effect on p-RPS6 (S235/236) [9]	effect on c-Myc protein expression ([10]; NCI-H460, 30 µM, 0.5 h to 48 h)	IC50 [11] [µM]	IC50 [12] [µM]	IC50 [13] [µM]	changes in the double-positive region of the panel [1, 15]	cell cycle modulation versus untreated cells [2, 15]	up-regulation of mRNA levels of CK2 subunits ([3]; NCI-H460, 5 µM, longer incubation times (3 h to 24 h))	effect on c-Myc protein expression ([10]; NCI-H460, 5 µM, 6 h to 48 h)
–	CSCC[C@@H]1NC(=O)[C@H](Cc2c[nH]c3ccccc23)NC(=O)[C@@H](NC(=O)CCNC(=O)[C@H](CCC(N)=O)NC(=O)[C@@H]2CCCN2C(=O)[C@@H]2CCCN2C(=O)[C@H](CCCNC(=N)N)NC(=O)[C@H](CCCNC(=N)N)NC(=O)[C@H](CCCNC(=N)N)NC(=O)[C@H](CCC(N)=O)NC(=O)[C@H](CCCNC(=N)N)NC(=O)[C@H](CCCNC(=N)N)NC(=O)[C@H](CCCCN)NC(=O)[C@H](CCCCN)NC(=O)[C@H](CCCNC(=N)N)NC(=O)CN)CSSC[C@@H](C(=O)O)NC(=O)[C@H]([C@@H](C)O)NC(=O)CNC(=O)[C@H](CC(C)C)NC(=O)[C@H](Cc2c[nH]cn2)NC(=O)[C@H](CCCNC(=N)N)NC(=O)[C@@H]2CCCN2C(=O)[C@H](CO)NC1=O [CIGB-300] (H-GRKKRRQRRRPPQ[βAla]CWMSPRHLGTC-OH; disulfide 15-25; N-terminus and C-terminus assumed)	~50	10–15%	no more than 1.5 fold	mainly interacted	mainly interacted	did not interact	only minor levels	evident interaction	potent inhibition	decreased c-Myc protein expression throughout all incubation times	60 to 300	60	171	–	–	–	–
5 ± 2.1	O=C(O)c1ccc2c(c1)nc(Nc1cccc(Cl)c1)c1ccncc12 [CX-4945, reference compound]	–	–	–	–	–	–	–	–	–	–	–	–	–	did not induce any remarkable changes	modified the amount of the cell population in all phases of the cell cycle	no more than 1.5 fold	induced c-Myc up-regulation

Source: paper PMC9856093, “CIGB-300 Anticancer Peptide Differentially Interacts with CK2 Subunits and Regulates Specific Signaling Mediators in a Highly Sensitive Large Cell Lung Carcinoma Cell Model” (Biomedicines, 2022)
